Results as given in publication PMC6788984, “High-potency ligands for DREADD imaging and activation in rodents and monkeys” (Nature Communications, 2019).
“And” between values parts separate entries of the source, which are not always exact repeats. Identical values can stand only once.

What was measured:
[1] = Radiometabolite analysis of [18F]JHU37107 in monkey plasma / whole blood (radio-HPLC); assay type: in vivo, rhesus monkey (Macaca mulatta)
Description: To determine the arterial input function for the radiotracers injected in rhesus monkeys radioligand concentrations in the arterial plasma were corrected by the unchanged parent fraction. […] Blood samples were immediately sampled for gamma counting, and plasma harvested by centrifugation for gamma counting and radio-HPLC analysis. The unchanged plasma parent fractions were determined by radio-HPLC on an X-terra® C18 column (10 µm, 7.8 mm × 300 mm, Waters Corp., Milford, MA), and eluted with MeOH:H2O:Et3N (80:20:0.1; by volume) at an isocratic flow rate of 4.0 mL min^−1. Eluates were monitored with an in-line flow-through NaI(Tl) scintillation detector (Bioscan). Data were stored and analyzed on a PC using the software “Bio-ChromeLite”. The collection of data for each radiochromatogram was decay corrected according to its respective HPLC injection time. Plasma free fraction was determined according to our previous methods.

hM4Di [2] = molecular target: T1, hM4Di (Homo sapiens, UniProt P08173, A203G/Y113C); assay: [18F]JHU37107 PET in a monkey expressing hM4Di in the right amygdala; assay type: in vivo, rhesus monkey (Macaca mulatta); set-up: expressed in transfected cells; host or cells: rhesus monkey (Macaca mulatta) right amygdala, lentivirus-transduced neurons
T1 sequence (P08173 1-479 Y113C/A203G): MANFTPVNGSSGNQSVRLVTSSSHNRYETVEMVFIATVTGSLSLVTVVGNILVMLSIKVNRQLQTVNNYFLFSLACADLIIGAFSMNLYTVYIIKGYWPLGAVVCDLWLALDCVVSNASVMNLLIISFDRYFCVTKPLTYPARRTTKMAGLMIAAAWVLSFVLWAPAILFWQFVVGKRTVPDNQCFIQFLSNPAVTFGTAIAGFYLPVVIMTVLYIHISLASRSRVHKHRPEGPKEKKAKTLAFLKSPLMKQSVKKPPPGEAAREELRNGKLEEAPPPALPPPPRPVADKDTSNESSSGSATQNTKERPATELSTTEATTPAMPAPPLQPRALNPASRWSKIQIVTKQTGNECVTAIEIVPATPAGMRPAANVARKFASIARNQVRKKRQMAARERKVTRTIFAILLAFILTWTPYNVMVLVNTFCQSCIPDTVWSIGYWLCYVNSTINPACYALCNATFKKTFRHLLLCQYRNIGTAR
Description: Lentivirus expressing an hM4Di-CFP fusion protein under an hSyn promoter[11] with a titer of >10^9 infectious particles was loaded into a 100 µL glass syringe (Hamilton Co., MA). The 31-gauge needle of the syringe was sheathed with a silica capillary (450 µm OD) to create a step 1 mm from the base of the aperture. The syringe was mounted in a Nanomite pump (Harvard Apparatus, Cambridge, MA). The needle was lowered through the incision in the dura mater to each of the pre-calculated target sites and 10 or 20 µL was infused at a rate of 1 µL min^−1. Each monkey received a total of between 10 and 12 injections (for a total injection volume of 120–240 µL). Post-infusion, the needle was left in situ for 10 min after each injection to allow pressure from the infusate to dissipate. The needle was then slowly removed. At the completion of the injection series the soft tissues were sutured together in anatomical layers.
(§1) [^18F]JHU37107 was prepared via the no-carrier-added ^18F-fluorination using an FDG Nuclear Interface module (Muenster, Germany). Briefly, 4 mg precursor (8-chloro-11-(4-ethylpiperazin-1-yl)-5H-dibenzo[b,e][1,4]diazepin-2-ol) and 8 mg tris(acetonitrile)cyclopentadienylruthenium(II)hexafluorophosphate (STREM, Boston, MA) were dissolved in ethanol (0.3 mL), the solution was heated at 85 °C for 25 min and evaporated to dryness under a stream of argon gas. The residue was dissolved in DMSO (0.5 mL) and acetonitrile (0.5 mL) and the solution was added to a dry complex of [^18F]fluoride and 9 mg 1,3-bis(2,6-di-i-propylphenyl)-2-chloroimidazolium chloride (STREM). The reaction mixture was heated at 130 °C for 30 min, diluted with mixture of 0.5 mL acetonitrile, 0.5 mL water and 0.03 mL TFA and injected onto a semi-preparative HPLC column (Luna C18, 10 micron, 10 mm × 250 mm) and eluted with 23:77 (v:v) acetonitrile:water (0.1% trifluoroacetic acid) at a flow rate of 10 mL min^−1. The radioactive peak corresponding to [^18F]JHU37107 (tR = 9.9 min) was collected in a reservoir containing 50 mL of water and 3 mL aq 8.4% NaHCO3 solution. The diluted product was loaded onto a solid phase extraction cartridge (Waters Oasis HLB plus light) and rinsed with 10 mL sterile saline. The product was eluted with 1000 µL of ethanol through a sterile 0.2 μm filter into a sterile, pyrogen-free vial and 10 mL saline was added through the same filter. The final product [^18F]JHU37107 was then analyzed by analytical HPLC (Luna C18, 10 micron, 4.6 mm × 250 mm; mobile phase 23:77 (v:v) acetonitrile:water (0.1% trifluoroacetic acid), flow rate of 3 mL min^−1; tR = 6.4 min) using a UV detector at 254 nm to determine the radiochemical purity (>95%) and specific radioactivity (152–188 GBq μmol^−1 (4100–5070 mCi μmol^−1)) at the time synthesis ended.
All macaque studies were acquired dynamically on the Focus 220 PET scanner (Siemens Medical Solutions, Knoxville, TN). The Focus 220 is a dedicated pre-clinical scanner with a transaxial FOV of 19 cm and an axial FOV of 7.5 cm. Image resolution is <2 mm within the central 5 cm FOV.
After initial evaluation the monkey was sedated with ketamine (10 mg kg^−1) followed by ketoprofen (as an analgesic) and glycopyrrolate (for salvia reduction), all weight dependent IM injections. The monkey would then be placed in the supine position, intubated with a tracheal tube. […] The monkey was always monitored while anesthetized. […]

hM4Di [3] = molecular target: T1, hM4Di; assay: [18F]JHU37107 PET in rats expressing hM3Dq or hM4Di in the right motor cortex; assay type: in vivo, rat; set-up: expressed in transfected cells; host or cells: rat right motor cortex, AAV-transduced neurons; details: unilateral hM4Di in right motor cortex
Description: as §1, with “The radioactive peak corresponding to [^18F]JHU37107 (tR = 9.9 min) was collected in a reservoir containing 50 mL of water and 3 mL aq 8.4% NaHCO3 solution. The diluted product was loaded onto a solid phase extraction cartridge (Waters Oasis HLB plus light) and rinsed with 10 mL sterile saline. The product was eluted with 1000 µL of ethanol through a sterile 0.2 μm filter into a sterile, pyrogen-free vial and 10 mL saline was added through the same filter.” left out, “ended. […]” for “ended.”

[4] = system: mu, kappa, and delta opioid receptors; assay: Binding and enzyme target profile screen (Eurofins); details: competitive binding screen, 10 uM
Description: These experiments were performed by an outside vendor (Eurofins, France). […] In each experiment, the respective reference compound was tested concurrently with the test compound to assess the assay reliability. […] Following incubation, the samples were filtered rapidly under vacuum through glass fiber filters presoaked in a buffer and rinsed several times with an ice-cold buffer using a 48-sample or 96-sample cell harvester. The filters were counted for radioactivity in a scintillation counter using a scintillation cocktail.

P-gp = molecular target: T2, P-gp (Homo sapiens, UniProt P08183); assay: P-glycoprotein (P-gp) substrate assay in Caco-2 cells with and without verapamil; assay type: in vitro ADME; details: Caco-2, efflux ratio with/without verapamil
T2 construct: host or cells: Caco-2
T2 sequence (P08183 whole entry): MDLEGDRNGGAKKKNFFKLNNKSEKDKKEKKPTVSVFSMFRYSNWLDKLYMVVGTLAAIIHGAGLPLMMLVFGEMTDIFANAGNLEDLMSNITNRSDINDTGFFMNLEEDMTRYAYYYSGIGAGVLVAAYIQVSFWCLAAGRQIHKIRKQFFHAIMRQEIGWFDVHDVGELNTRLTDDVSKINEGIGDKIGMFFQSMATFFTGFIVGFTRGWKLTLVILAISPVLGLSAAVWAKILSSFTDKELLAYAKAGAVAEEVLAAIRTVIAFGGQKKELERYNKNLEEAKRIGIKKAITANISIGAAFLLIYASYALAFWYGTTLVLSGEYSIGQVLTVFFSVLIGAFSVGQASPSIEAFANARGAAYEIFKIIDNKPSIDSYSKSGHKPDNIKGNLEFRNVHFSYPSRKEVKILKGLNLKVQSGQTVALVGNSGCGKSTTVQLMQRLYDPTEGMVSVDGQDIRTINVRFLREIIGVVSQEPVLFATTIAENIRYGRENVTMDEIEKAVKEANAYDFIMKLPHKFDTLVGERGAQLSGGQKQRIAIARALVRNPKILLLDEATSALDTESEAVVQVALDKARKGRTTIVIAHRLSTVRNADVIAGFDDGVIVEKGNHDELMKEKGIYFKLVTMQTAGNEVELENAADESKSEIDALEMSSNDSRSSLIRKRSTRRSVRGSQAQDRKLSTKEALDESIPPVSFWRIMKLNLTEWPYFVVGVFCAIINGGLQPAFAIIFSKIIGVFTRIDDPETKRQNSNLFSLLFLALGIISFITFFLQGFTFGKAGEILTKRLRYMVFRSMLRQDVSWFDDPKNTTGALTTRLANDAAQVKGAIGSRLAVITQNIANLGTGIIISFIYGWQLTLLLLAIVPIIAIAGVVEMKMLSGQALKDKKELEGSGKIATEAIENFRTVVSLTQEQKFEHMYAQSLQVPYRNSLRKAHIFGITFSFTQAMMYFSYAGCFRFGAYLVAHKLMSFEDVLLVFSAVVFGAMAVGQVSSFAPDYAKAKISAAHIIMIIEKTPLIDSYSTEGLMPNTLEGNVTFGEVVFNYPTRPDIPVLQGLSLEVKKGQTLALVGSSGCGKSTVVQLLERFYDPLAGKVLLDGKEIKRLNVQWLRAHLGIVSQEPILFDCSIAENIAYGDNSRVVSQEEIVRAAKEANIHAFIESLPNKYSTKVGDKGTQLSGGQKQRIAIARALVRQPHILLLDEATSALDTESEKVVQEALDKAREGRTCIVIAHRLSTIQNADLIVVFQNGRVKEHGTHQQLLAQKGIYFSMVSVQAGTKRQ
Description: These experiments were performed by an outside vendor (Eurofins, France). C21 was tested in P-gp substrate assessment assays at 10 µM. The A to B and B to A permeability was measured in Caco-2 cells in the presence and absence of verapamil, a P-gp inhibitor. Efflux ratios (E) were calculated based on the apparent B–A and A–B permeability with and without verapamil. In each experiment, the respective reference compound was tested concurrently with the test compound to assess the assay reliability. Fluorescein was used as the cell monolayer integrity marker. Fluorescein permeability assessment (in the A–B direction at pH 7.4 on both sides) was performed after the permeability assay for the test compound.

hM4Di [5] = molecular target: T1, hM4Di; assay: Autoradiography: direct binding of [3H]clozapine, [3H]C21, [3H]C13 in monkey brain sections expressing hM4Di; set-up: expressed in transfected cells; host or cells: rhesus monkey (Macaca mulatta) right amygdala, lentivirus-transduced neurons; species or system rhesus monkey (Macaca mulatta); unit not given here; details: Fig. 1 panel H; [3H]-labelled ligand; individual values; listed as CLZ
Excerpt: Flash frozen tissue (both rodents and the monkey) was sectioned (20 µm) on a cryostat (Leica, Germany) and thaw mounted onto ethanol-washed glass slides. […] Slides were air dried and placed in a Hypercassette™ (Amersham Biosciences) and covered with a BAS-TR2025 Storage Phosphor Screen (FujiFilm, Japan). The slides were exposed to the screen for 5–7 days and imaged using a phosphor imager (Typhoon FLA 7000; GE Healthcare).

hM4Di [6] = molecular target: T1, hM4Di; assay: [35S]GTPgammaS autoradiography in rat brain sections expressing hM4Di; assay type: biochemical; set-up: expressed in transfected cells; host or cells: rat right motor cortex, AAV-transduced neurons; details: 10 nM
Description: Sections were encircled with a hydrophobic membrane using a PAP pen (Sigma-Aldrich). Preincubation buffer was pipetted onto each slide and allowed to incubate for 20 min (50 mM Tris-HCl, 1 mM EDTA, 5 mM MgCl2 and 100 mM NaCl). The preincubation buffer was removed via aspiration and each slide was loaded with GDP in the presence of DPCPX and allowed to incubate of 60 min (Preincubation buffer, 2 mM GDP, 1 μM DPCPX, Millipore water). […] The [^35S]GTPγS cocktail was removed via aspiration and slides were washed in ice-cold washing buffer (50 mM Tris-HCl, 5 mM MgCl2, pH 7.4) for 5 min (2×) followed by a 30 s dip in ice-cold deionized water. Hydrophobic membrane was removed with a cotton swab and xylene and slides were placed into a […] covered by a BAS-SR2040 phosphor screen (FujiFilm; GE Healthcare). The slides were exposed to the phosphor screen for 3-5 days and imaged using a phosphor imager (Typhoon FLA 7000; GE Healthcare).

[7] = system: untransfected HEK-293 cells; assay: Negative controls of the functional assays: HEK-293 cells without DREADD; assay type: cell-based, human
Description: BRET assays were performed to detect receptor ligand-induced Gαo1 protein activation. […] Forty-eight hour after transfection cells were harvested, washed and resuspended in phosphate-buffered saline (PBS). Approximately, 200,000 cells/well were distributed in 96-well plates, and 5 µM Coelenterazine H (substrate for luciferase) was added to each well. Five minutes after addition of Coelenterazine H, ligands were added to each well. The fluorescence of the acceptor was quantified (excitation at 500 nm and emission at 540 nm for 1-s recordings) in a PheraStar FSX plate reader (BMG Labtech) to confirm the constant expression levels across experiments. In parallel, the BRET signal from the same batch of cells was determined as the ratio of the light emitted by mVenus (510–540 nm) over that emitted by RLuc (485 nm). Results were calculated for the BRET change (BRET ratio for the corresponding drug minus BRET ratio in the absence of the drug) 5 min after the addition of the ligands.
Intracellular Ca^2+ concentration was monitored using the fluorescent Ca^2+ biosensor GCaMP6f. HEK-293 cells were transfected with 7 µg/dish of the cDNA encoding for hM3Dq (Addgene #89149) or hM4Di (Addgene #89150) and 7 µg/dish of GCaMP6. Forty-eight hours after transfection, cells were harvested, washed, resuspended in Mg^2+-free Locke’s buffer pH 7.4 (154 mM NaCl, 5.6 mM KCl, 3.6 mM NaHCO3, 2.3 mM CaCl2, and 5 mM HEPES) containing 5.6 mM of glucose and approximately 200,000 cells/well were distributed in black 96-well plates. Increasing concentrations of the indicated compound were added to the cells and fluorescence intensity (excitation at 480 nm, emission at 530 nm) was measured at 18-s intervals during 250 s using a PHERAstar FSX (BMG Labtech). The net change in intracellular Ca^2+ concentration was expressed as F − F0 where F is the fluorescence at a given concentration of ligand and F0 is the average of the baseline values (fluorescence values of buffer-treated wells).

WT mice = assay: [18F]FDG PET metabolic mapping in WT mice; assay type: in vivo, mouse; details: 0.1 mg/kg
Description: Mice (D1-hM3Dq, D1-hM4Di or WT littermates, see above) were habituated to experimenter handling and fasted 16 h before the experiment. On the day of the experiment, mice received an IP injection of vehicle (1 ml kg^−1) and were placed back into their home cages. Ten minutes later, mice were injected (IP) with 11 MBq of 2-deoxy-2-[^18F]fluoro-D-glucose (FDG, Cardinal Health) and placed back into their home cages. After 30 min, mice were anesthetized with 1.5% isoflurane, placed on a custom-made bed of a nanoScan small animal PET/CT scanner (Mediso Medical Imaging Systems) and scanned for 20 min on a static acquisition protocol, followed by a CT scan. […] Voxel-based repeated measures with Student’s t test comparing baseline to drug were performed, and the resulting parametric images were filtered for statistically significant (p < 0.05) clusters larger than 100 contiguous voxels. All statistical parametric mapping analyses were performed using Matlab R2016 (Mathworks) and SPM12 (University College London).

binding to opioid receptors [4]	SMILES	parent radioactivity composition of plasma ([1]; in vitro monkey whole blood, 30 min incubation at room temperature)	parent radioactivity composition of plasma ([1]; monkey plasma, 30 min after IV administration)	parent radioactivity composition of plasma ([1]; monkey plasma, 180 min after IV administration)	pharmacokinetic properties (hM4Di [2])	PET labelling of hM4Di (hM4Di [2]; hM4Di in right amygdala)	PET visualization of hM4Di (hM4Di [3])	P-gp substrate (P-gp)	tritiated ligand binding in brain tissue, CPu (hM4Di [5])	tritiated ligand binding in brain tissue, CTX (hM4Di [5])	tritiated ligand binding in brain tissue, hM4Di (hM4Di [5])	hM4Di activation measured as [35S]GTPgammaS binding (hM4Di [6])	functional response in HEK-293 cells lacking DREADDs [7]	functional response, BRET (Go-alpha-Rluc8, beta1, gamma2-mVenus), no DREADD ([7]; HEK-293 cells)	functional response, GCaMP6f, no DREADD ([7]; HEK-293 cells)	brain metabolic activity ([18F]FDG) (WT mice)	brain metabolic activity ([18F]FDG) (WT mice; listed as CLZ)
–	CCN1CCN(C2=Nc3cc(Cl)ccc3Nc3ccc([18F])cc32)CC1 [[^18F]JHU37107]	49.7%	56%	24.2%	favorable pharmacokinetic properties	able to directly label hM4Di receptors	permitted hM4Di visualization in both the AAV injection site as well as at known proximal and distal anatomical projection sites	–	–	–	–	–	–	–	–	–	–
does not	CN1CCN(C2=Nc3cc(Cl)ccc3Nc3ccccc32)CC1 [clozapine]	–	–	–	–	–	–	none of these compounds is a substrate for P-gp	109.018 and 115.173 and 108.688 and 86.4656 and 88.6824 and 91.973	88.2005 and 122.029 and 119.221 and 97.205 and 89.8389 and 100.22	176.387 and 144.183 and 141.333 and 201.955 and 168.154 and 164.257	induces significantly greater hM4Di activation	Neither clozapine nor C21 produced detectable functional responses	did not show any functional response	did not show any functional response	did not produce any significant changes in brain glucose metabolism	did not show any significant changes in brain metabolic activity
